Test results from patent US11472845B2, “Antitumor peptide and use thereof” (TOAGOSEI CO., LTD., priority 2019, dated 2022).
Read-outs that look alike come from different tables or passages of the source. Ends that are not written are not given here.

How the values were obtained:
Assay type in all cases: cell-based
[1] = tested on: human melanoma cell lines (A375); details: for Cell viability (%) of test cells: human, 48 h
Procedure: The antitumor activity of Sample 1 synthesized in the above Test Example 1 with respect to human-derived cultured tumor cells was evaluated. Currently commercially available human gastric cancer cell lines (FU97), human alveolar basal epithelial adenocarcinoma cell lines (A549), human breast cancer cell lines (MDA-MB-231), and human melanoma cell lines (A375) were prepared as test tumor cells. In addition, normal human mammary epithelial cell culture lines (MCF-12F) were prepared for comparison. A DMEM culture medium including 50 unit/mL of penicillin, 50 μg/mL of streptomycin, and 10% FBS. The above five types of cell lines were cultured in respective designated culture solutions. The cell lines were cultured so that the number of cells per well in a 96-hole (well) plate was about 5×10^3. Here, an amount of the culture solution per well was 100 μL. The 96-well plate was then placed in a CO2 incubator. Then, pre-incubation was performed under conditions of 37° C. and 5% CO2 for about 1 day (about 23 hours). Then, regarding the culture solution for the peptide addition area, culture solutions containing Sample 1 for each concentration were prepared so that the concentration of Sample 1 was 6.25 μM, 12.5 μM or 25 μM and supplied to wells (that is, wells after the pre-incubation) in which 90 μL of cells to be evaluated were cultured in each well. On the other hand, regarding the culture solution for the comparative test area, a culture solution to which no Sample 1 was added was prepared, and supplied to wells (that is, wells after the pre-incubation) in which 90 μL of cells to be evaluated were cultured in each well. The 96-well plate was then placed in a CO2 incubator, and incubated under conditions of 37° C. and 5% CO2 for 48 hours. After the incubation for 48 hours, the culture solution in each well was replaced with […] a fresh culture solution containing no Sample 1. […] Then, the absorbance at a wavelength of 450 nm (value corrected by the absorbance at a wavelength of 620 nm: A450-A620) was measured based on the reduction of the tetrazolium salt in the culture solution. Then, the cell viability was calculated according to a colorimetric method. In the test areas (test areas 1 to 3) in the peptide addition area, the cell viability of each of the above five types of cell lines was calculated as a relative value when a measured value (measurement absorbance) of the comparative test area in the same cell lines was set as 100%. That is, regarding each of the above five types of cell lines, the cell viability (%) was calculated by dividing the measurement absorbance of the test areas (test areas 1 to 3) in the peptide addition area by the measurement absorbance of the comparative test area in the same cell lines and multiplying by 100.

[2] = in vitro; details: human
Procedure: Currently commercially available human gastric cancer cell lines (FU97), human alveolar basal epithelial adenocarcinoma cell lines (A549), human breast cancer cell lines (MDA-MB-231), and human melanoma cell lines (A375) were prepared as test tumor cells. In addition, normal human mammary epithelial cell culture lines (MCF-12F) were prepared for comparison. A DMEM/F12 culture medium including 20 ng/mL of recombinant EGF, 10 μg/mL of insulin, 0.5 μg/mL of hydrocortisone, and 10% FBS (product, commercially available from Wako Pure Chemical Industries, Ltd.). The above five types of cell lines were cultured in respective designated culture solutions. The cell lines were cultured so that the number of cells per well in a 96-hole (well) plate was about 5×10^3. Here, an amount of the culture solution per well was 100 μL. The 96-well plate was then placed in a CO2 incubator. Then, pre-incubation was performed under conditions of 37° C. and 5% CO2 for about 1 day (about 23 hours). Then, regarding the culture solution for the peptide addition area, culture solutions containing Sample 1 for each concentration were prepared so that the concentration of Sample 1 was 6.25 μM, 12.5 μM or 25 μM and supplied to wells (that is, wells after the pre-incubation) in which 90 μL of cells to be evaluated were cultured in each well. On the other hand, regarding the culture solution for the comparative test area, a culture solution to which no Sample 1 was added was prepared, and supplied to wells (that is, wells after the pre-incubation) in which 90 μL of cells to be evaluated were cultured in each well. The 96-well plate was then placed in a CO2 incubator, and incubated under conditions of 37° C. and 5% CO2 for 48 hours. […] Then, the absorbance at a wavelength of 450 nm (value corrected by the absorbance at a wavelength of 620 nm: A450-A620) was measured based on the reduction of the tetrazolium salt in the culture solution. Then, the cell viability was calculated according to a colorimetric method. […]

[3] = tested on: tumor cells derived from non-human mammals; experiment: Antitumor activity on tumor cells derived from non-human mammals (data not shown); details: detailed data not shown

Substance: MACLGFQRHKAQLNLATRTWPCTLLFFLLFIPVFCKKRTLRKTDRKKR-NH2 (cysteines drawn unpaired) [Sample 1]
- Specific cell viability of test tumor cells ([1]; A375, 12.5 μM Sample 1, (cell viability of test tumor cells)/(cell viability of MCF-12F cells)×100): 35.7
- Cell viability (%) of test cells ([1]; 6.25 μM): 57.8%
- Cell viability (%) of test cells ([1]; 12.5 μM): 40.8%
- Cell viability (%) of test cells ([1]; 25 μM): 31.6%
- viability at 48 h, 6.25 μM [2]: 130%
- viability at 48 h, 12.5 μM [2]: 114%
- viability at 48 h, 25 μM [2]: 82%
- antitumor activity and tumor cell-selective antitumor activity [3]: high antitumor activity and tumor cell-selective antitumor activity
